Data as given in patent US8350048B2, “Amide compounds as boosters of antivirals” (Janssen R&D Ireland, priority 2007, dated 2013).
Where two headings read alike, the source gives them in different places.

How the values were obtained:
[1] = test system: wild-type HIV-1IIIB strain; test: Antiviral activity, MT4 LTR-EGFP cellular assay; type: cell-based; parameters: key to Antiviral activity IIIB (pEC50): pEC50 = -log10(EC50); settings: for EC50: read-out: Antiviral activity IIIB (pEC50) (converted)
Description: (§1) Assay 1 &2: Antiviral Activity/Toxicity
The compounds of the present invention were tested for antiviral activity in a cellular assay, which was performed according to the following procedure.
The human T-cell line MT4 is engineered with Green Fluorescent Protein (GFP) and an HIV-specific promoter, HIV-1 long terminal repeat (LTR). This cell line is designated MT4 LTR-EGFP, and can be used for the in vitro evaluation of anti-HIV activity of investigational compounds. In HIV-1 infected cells, the Tat protein is produced which upregulates the LTR promotor and finally leads to stimulation of the GFP reporter production, allowing measuring ongoing HIV-infection fluorometrically.
(§2) The ratio of CC50 to EC50 is defined as the selectivity index (SI) and is an indication of the selectivity of the anti-HIV activity of the inhibitor. The ultimate monitoring of HIV-1 infection and cytotoxicity is done using a scanning microscope. Image analysis allows very sensitive detection of viral infection. Measurements are done before cell necrosis, which usually takes place about five days after infection, in particular measurements are performed three days after infection.
(§3) A pEC50 value corresponds to −log10(EC50). A pCC50 value corresponds to −log10(CC50).

[2] = test system: MT4 CMV-EGFP cells; test: Toxicity, mock-infected MT4 CMV-EGFP cells; type: cell-based, human
Description: as §1
(§4) Analogously, MT4 cells are engineered with GFP and the constitutional cytomegalovirus (CMV) promotor. […] Cytotoxic investigational compounds reduce GFP levels of mock-infected MT4 CMV-EGFP cells.
as §2, §3

[3] = Metabolic stability of test compounds (HLM15'); type: in vitro ADME, human; settings: human liver microsomes 1 mg/ml, 5 μM test compound, 15 min; for recovery at 15 min, 5 μM: pH 7.4, read-out: Metabolic stability (HLM, % recovery after 15')
Description: Human liver tissue is rinsed in ice-cold 0.1 M Tris-HCl (pH 7.4) buffer to wash excess blood. Tissue is then blotted dry, weighed and chopped coarsely using surgical scissors. The tissue pieces are homogenized in 3 volumes of ice-cold 0.1 M phosphate buffer (pH 7.4) using either a Potter-S (Braun, Italy) equipped with a Teflon pestle or a Sorvall Omni-Mix homogenizer, for 7×10 sec. In both cases, the vessel is kept in/on ice during the homogenization process. Tissue homogenates are centrifuged at 9000×g for 20 min at 4° C. using a Sorvall centrifuge or Beckman Ultracentrifuge. The resulting supernatant can be stored at −80° C. and is designated ‘S9’. The S9 fraction is centrifuged at 100,000×g for 60 min at 4° C. using a Beckman ultracentrifuge. The resulting supernatant is carefully aspirated, aliquoted and designated ‘cytosol’. The pellet is re-suspended in 0.1 M phosphate buffer (pH 7.4) in a final volume of 1 ml per 0.5 g original tissue weight and designated ‘microsomes’. All sub-cellular fractions are aliquoted, immediately frozen in liquid nitrogen and stored at −80° C. until use.
Heat-inactivated (10 min at 95° C.) ‘S9’ or microsomes were used for blank experiments. […] The reaction was incubated for 0 or 15 min. Next, the reaction was stopped by addition of 2 volumes of DMSO (or acetonitrile). Samples were centrifuged (10 min, 900×g) and analyzed by LC-MS.

[4] = molecular target: T1, CYP3A4 (Homo sapiens, UniProt P08684); test: CYP450 inhibition CDNA-CYP3A4-BFC; settings: 10 μM test compound, substrate BFC 150 μM, 30 min
Description: (§5) Assay 4: CYP450 Inhibition

[5] = molecular target: T1, CYP3A4; test: CYP450 inhibition CDNA-CYP3A4-BQ; settings: 10 μM test compound, substrate BQ 60 μM, 30 min
Description: as §5

[6] = molecular target: CYP2C9 (Homo sapiens, UniProt P11712); test: in vitro
Description: as §5

[7] = molecular target: T2, CYP2C19 (Homo sapiens, UniProt P33261); test: CYP450 inhibition CDNA-CYP2C19-CEC; settings: 10 μM test compound, substrate CEC 25 μM, 30 min
Description: (§6) Inhibition of the metabolism of test compounds by different CYP P450 isoenzymes was determined using E. coli expressed proteins (3A4, 2C9, 2D6, 1A2, and 2C19) that convert their specific substrates into a fluorescent molecule (Table 6). This fluorescent molecule was measured using a fluorescent plate reader (Victor2 (Wallac) or Fluoroskan (Labsystems)). […] CYP P450 enzymes were prepared in house or commercially bought and stored at −80° C.
(§7) The assay was performed in black 96 well Costar plates. Test compounds were added to a CYP P450 enzyme solution in the presence of an NADPH generating system. After 5 min of preincubation at 37° C., the freshly prepared, phosphate buffered (pH 7.4) substrate solution was added. Known CYP P450 inhibitors were used as positive controls, negative controls were run without CYP P450 enzyme. […] Reaction mixtures were incubated at 37° C. for 30 min (CYP3A4-BFC), 30 min (CYP3A4-BQ), 10 min (CYP3A4-DBF), 15 min (CYP1A2-CEC), 30 min (CYP2C9-MFC, CYP2C19-CEC), or 45 min (CYP2D6-AMMC), respectively. Then, the reaction was stopped by the addition of 200 μl acetonitrile, and the fluorescent signal was detected.
(§8) Calculation of CYP P450 isoenzyme inhibition (% inh.):
(§9) % activity=(100/(average positive control−average negative control))×(average sample−average negative control)

[8] = Toxicity, mock-infected MT4 CMV-EGFP cells; type: cell-based, human; settings: human; for CC50 at 3 days: mock-infected MT4 CMV-EGFP cells, read-out: Toxicity MT4 (pCC50) (converted)
Description: as §1, §4, §2, §3

[9] = molecular target: CYP2D6 (Homo sapiens, UniProt P10635); test: in vitro; settings: pH 7.4
Description: as §6, §7, §8, §9

[10] = molecular target: T3, CYP1A2 (Homo sapiens, UniProt P05177); test: in vitro; settings: E. coli expressed CYP1A2, pH 7.4, probe CEC 5 μM
T3 sequence (P05177 1-516): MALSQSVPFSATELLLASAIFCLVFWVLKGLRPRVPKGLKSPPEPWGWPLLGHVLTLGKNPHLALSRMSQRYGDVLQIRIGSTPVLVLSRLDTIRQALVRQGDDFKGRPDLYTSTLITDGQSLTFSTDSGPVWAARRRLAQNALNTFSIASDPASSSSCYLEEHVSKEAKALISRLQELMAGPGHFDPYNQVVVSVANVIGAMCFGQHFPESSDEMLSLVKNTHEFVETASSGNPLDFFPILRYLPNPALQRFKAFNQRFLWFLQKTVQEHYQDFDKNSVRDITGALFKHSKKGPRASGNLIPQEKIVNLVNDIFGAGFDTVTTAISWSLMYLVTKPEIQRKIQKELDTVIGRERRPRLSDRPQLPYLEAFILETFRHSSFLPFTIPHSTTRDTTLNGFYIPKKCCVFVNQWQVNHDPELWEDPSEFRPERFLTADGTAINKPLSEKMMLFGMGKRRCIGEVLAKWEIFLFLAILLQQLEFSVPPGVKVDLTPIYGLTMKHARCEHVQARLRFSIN
Description: as §6, §7, §8, §9

[11] = molecular target: T2, CYP2C19; test: in vitro; settings: E. coli expressed CYP2C19, pH 7.4, probe CEC 25 μM
Description: as §6, §7, §8, §9

[12] = wild-type HIV-1 IIIB, MT4 LTR-EGFP cells, three days after infection
[13] = Human immunodeficiency virus 1, 72 h, wild-type HIV-1 IIIB, MT4 LTR-EGFP cells, three days after infection

T1 sequence (P08684 whole entry): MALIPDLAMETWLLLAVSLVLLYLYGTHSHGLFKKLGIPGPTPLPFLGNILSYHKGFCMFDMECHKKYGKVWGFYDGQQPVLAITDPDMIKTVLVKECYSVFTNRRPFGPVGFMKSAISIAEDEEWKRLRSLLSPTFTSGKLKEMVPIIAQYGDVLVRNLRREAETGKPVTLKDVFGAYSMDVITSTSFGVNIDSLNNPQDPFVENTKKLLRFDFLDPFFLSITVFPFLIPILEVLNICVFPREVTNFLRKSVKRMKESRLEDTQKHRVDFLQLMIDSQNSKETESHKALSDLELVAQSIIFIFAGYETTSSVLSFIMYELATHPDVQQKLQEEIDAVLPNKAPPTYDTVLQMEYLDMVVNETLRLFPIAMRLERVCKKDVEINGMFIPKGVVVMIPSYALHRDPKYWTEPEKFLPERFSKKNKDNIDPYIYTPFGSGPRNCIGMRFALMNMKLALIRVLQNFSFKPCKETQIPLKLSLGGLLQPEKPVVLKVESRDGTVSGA
Sequence of CYP2D6 (P10635 whole entry): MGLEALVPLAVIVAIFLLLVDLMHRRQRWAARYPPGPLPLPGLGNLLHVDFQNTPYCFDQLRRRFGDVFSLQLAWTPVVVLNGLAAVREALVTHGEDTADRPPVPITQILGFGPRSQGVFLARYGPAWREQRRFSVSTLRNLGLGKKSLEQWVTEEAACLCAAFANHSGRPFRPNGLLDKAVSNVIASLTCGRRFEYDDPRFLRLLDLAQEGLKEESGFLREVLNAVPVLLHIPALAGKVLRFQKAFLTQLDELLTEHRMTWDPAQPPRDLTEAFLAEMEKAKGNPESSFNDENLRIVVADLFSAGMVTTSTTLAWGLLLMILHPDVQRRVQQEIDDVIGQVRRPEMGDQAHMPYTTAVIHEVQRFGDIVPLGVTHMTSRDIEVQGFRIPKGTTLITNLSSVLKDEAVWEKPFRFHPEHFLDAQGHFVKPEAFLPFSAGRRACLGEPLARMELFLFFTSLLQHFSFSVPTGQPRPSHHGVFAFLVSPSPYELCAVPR
T2 sequence (P33261 whole entry): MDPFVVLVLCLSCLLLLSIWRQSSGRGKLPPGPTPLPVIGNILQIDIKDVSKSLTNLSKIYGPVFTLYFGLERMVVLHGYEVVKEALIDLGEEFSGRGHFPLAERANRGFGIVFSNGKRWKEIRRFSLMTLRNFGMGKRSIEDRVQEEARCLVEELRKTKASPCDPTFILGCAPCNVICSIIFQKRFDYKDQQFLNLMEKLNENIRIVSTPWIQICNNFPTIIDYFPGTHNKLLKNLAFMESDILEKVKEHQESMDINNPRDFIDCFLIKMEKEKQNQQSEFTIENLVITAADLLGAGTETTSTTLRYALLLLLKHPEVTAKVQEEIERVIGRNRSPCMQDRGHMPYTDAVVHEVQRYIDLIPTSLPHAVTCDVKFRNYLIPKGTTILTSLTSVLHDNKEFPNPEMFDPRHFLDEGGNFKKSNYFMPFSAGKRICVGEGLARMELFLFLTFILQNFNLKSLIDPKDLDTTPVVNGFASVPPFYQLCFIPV
Sequence of CYP2C9 (P11712 whole entry): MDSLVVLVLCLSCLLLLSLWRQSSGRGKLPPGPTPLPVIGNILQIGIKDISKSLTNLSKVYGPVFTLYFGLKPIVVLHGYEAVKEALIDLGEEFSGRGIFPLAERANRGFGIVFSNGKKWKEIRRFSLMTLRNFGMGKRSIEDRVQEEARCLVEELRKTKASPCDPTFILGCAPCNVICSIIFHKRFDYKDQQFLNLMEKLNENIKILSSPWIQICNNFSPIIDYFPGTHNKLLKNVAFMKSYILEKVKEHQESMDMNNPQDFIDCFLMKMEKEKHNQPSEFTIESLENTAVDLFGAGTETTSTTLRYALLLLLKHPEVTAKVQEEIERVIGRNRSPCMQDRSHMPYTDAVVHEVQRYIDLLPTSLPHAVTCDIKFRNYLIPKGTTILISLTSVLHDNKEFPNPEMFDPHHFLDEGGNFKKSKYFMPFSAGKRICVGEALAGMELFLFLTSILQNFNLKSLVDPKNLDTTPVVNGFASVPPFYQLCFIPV

Structure (SMILES) | Antiviral activity IIIB (pEC50) [1, 12] | Toxicity MT4 (pCC50) [2] | Metabolic stability (HLM, % recovery after 15') [3] [%] | Cyp450 inhibition: CDNA-CYP3A4-BFC (% inhibition) [4] [%] | Cyp450 inhibition: CDNA-CYP3A4-BQ (% inhibition) [5] [%] | Cyp450 inhibition: CDNA-CYP2C9-MFC (% inhibition) [6] [%] | Cyp450 inhibition: CDNA-CYP2C19-CEC (% inhibition) [7] [%] | EC50 [1, 13] [µM] | CC50 [8] [µM] | recovery at 15 min, 5 μM [3] [%] | inhibition at 30 min, 10 μM ([6]; human, pH 7.4) [%] | inhibition at 45 min, 10 μM [9] [%] | inhibition at 15 min, 10 μM [10] [%] | inhibition at 30 min, 10 μM [11] [%] | EC50 ([1]; Human immunodeficiency virus 1, IIIB, 72 h) [µM] | CC50 at 3 days [8] [µM]
CN(C)CCN(C[C@@H](O)[C@H](Cc1ccccc1)NC(=O)OCc1cncs1)C(=O)c1ccc2nc(N3CCCC3)oc2c1 [Compound C17] | <4.00 | <4.00 | 55 | 95 | 79 | 34 | 46 |  |  |  |  |  |  |  |  | 
CC(C)(O)CN(C[C@@H](O)[C@H](Cc1ccccc1)NC(=O)OCc1cncs1)C(=O)c1ccc2nc(N3CCCC3)oc2c1 [Compound C28] | <4.00 | <4.00 | 72 | 98 | 79 | 99 | 83 |  |  |  |  |  |  |  |  | 
CCN(C)c1nc2ccc(C(=O)N(CC(C)C)C[C@@H](O)[C@H](Cc3ccc(F)cc3)NC(=O)OCc3cncs3)cc2o1 [Compound C53, Thiazol-5-ylmethyl (2S,3R)-4-(2-(ethyl(methyl)amino)-N-isobutylbenzo[d]-oxazole-6-carboxamido)-1-(4-fluorophenyl)-3-hydroxybutan-2-ylcarbamate] |  |  |  |  |  |  |  | 46.8 | 50.1 | 71 | 96 | 61 | 0 | 95 |  | 
O=C(N[C@@H](Cc1ccccc1)[C@H](O)CN(CCN1CCCC1)C(=O)c1ccc2nc(N3CCCC3)oc2c1)OCc1cncs1 [Compound C13] | =4.24 | <4.00 | 81 | 91 | 76 | 42 | 46 |  |  |  |  |  |  |  |  | 
CC(C)CN(C[C@@H](O)[C@H](Cc1ccccc1)NC(=O)OCc1cncs1)C(=O)c1ccc2nc(N3CCCC3)oc2c1 [Compound C2] | <4.00 | <4.00 | 78 |  |  |  | 92 |  |  |  |  |  |  |  |  | 
O=C(N[C@@H](Cc1ccccc1)[C@H](O)CN(CC1CCC(F)(F)CC1)C(=O)c1ccc2nc(N3CCCC3)oc2c1)OCc1cncs1 [Compound C47] | =4.53 | =4.38 | 78 | 95 | 85 | 98 | 96 |  |  |  |  |  |  |  |  | 
CC(C)(C)CN(C[C@@H](O)[C@H](Cc1ccccc1)NC(=O)OCc1cncs1)C(=O)c1ccc2nc(N3CCCC3)oc2c1 [Compound C37] | =4.35 | =4.31 | 71 | 97 | 79 | 96 | 92 |  |  |  |  |  |  |  |  | 
CN(C[C@@H](O)[C@H](Cc1ccccc1)NC(=O)OCc1cncs1)C(=O)c1ccc2nc(N3CCCC3)oc2c1 [Compound C21] | <4.00 | <4.00 | 71 | 96 | 81 | 100 | 90 |  |  |  |  |  |  |  |  | 
O=C(N[C@@H](Cc1ccccc1)[C@H](O)CN(CCN1CCOCC1)C(=O)c1ccc2nc(N3CCCC3)oc2c1)OCc1cncs1 [Compound C20] | <4.00 | <4.00 | 65 | 96 | 81 | 72 | 65 |  |  |  |  |  |  |  |  | 
O=C(N[C@@H](Cc1ccccc1)[C@H](O)CN(CC1CCCCC1)C(=O)c1ccc2nc(N3CCCC3)oc2c1)OCc1cncs1 [Compound C31, Thiazol-5-ylmethyl (2S,3R)-4-(N-(cyclohexylmethyl)-2-(pyrrolidin-1-yl)-benzo[d]oxazole-6-carboxamido)-3-hydroxy-1-phenylbutan-2-ylcarbamate] |  |  |  |  |  |  |  |  |  | 59 |  | 78 |  | 104 | 27.5 | 21.9
CC(C)CN(C[C@@H](O)[C@H](Cc1ccccc1)NC(=O)OCc1cncs1)C(=O)c1ccc2nc(C(C)C)oc2c1 [Compound C45, Thiazol-5-ylmethyl (2S,3R)-3-hydroxy-4-(N-isobutyl-2-isopropylbenzo[d]-oxazole-6-carboxamido)-1-phenylbutan-2-ylcarbamate] |  |  |  |  |  |  |  | 44.7 |  | 68 |  | 44 |  | 89 |  | 42.7
